Literature values as cited in US10806768B2, “Composition for promoting metallothionein production” (priority 2016, dated 2020).

SMILES: CC(=O)N[C@@H](CS)C(=O)O [NAC, N-Acetyl-Cysteine]
- oxidative glutathione disulfide (GSSG) level, NAC group (only at a trend level of significance, p=0.09): increased
- CGI-I, NAC versus placebo groups (p>0.69): no statistically significant difference
- glutathione (GSH) level in blood, NAC group (versus placebo, p<0.05): significantly higher
- DNA strand break and oxidative damage, NAC versus placebo groups (week 12): no significant difference
- GSH/GSSG ratio, NAC versus placebo groups (week 12): no significant difference
- blood homocysteine levels, NAC versus placebo groups (week 12): no significant difference
